ChEMBL document CHEMBL1201861, “Genomics of Drug Sensitity in Cancer screening data, Wellcome Trust Sanger Institute”

Experiments:
Assay in all cases: cells
CTV-1 = assay type: functional, cell-based; conditions: Homo sapiens;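 further: growth inhibition of the cell line, read out with a cell viability assay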
Description: SANGER: Inhibition of human CTV-1 cell growth in a cell viability assay.

DK-MG = assay type: functional, cell-based, Homo sapiens; conditions: Homo sapiens, DK-MG;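 further: growth inhibition of DK-MG cells, read out with a cell viability assay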
Description: SANGER: Inhibition of human DK-MG cell growth in a cell viability assay.

DOK = assay type: functional, cell-based, Homo sapiens; conditions: Homo sapiens, DOK;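 further: cell viability assay read-out, values reflect inhibition of cell growth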
Description: SANGER: Inhibition of human DOK cell growth in a cell viability assay.

G-402 = assay type: functional, cell-based, Homo sapiens; conditions: Homo sapiens, G-402
Description: SANGER: Inhibition of human G-402 cell growth in a cell viability assay.

GCT = assay type: functional, cell-based, Homo sapiens; conditions: Homo sapiens, GCT;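 further: GCT cell line proliferation inhibition, read out with a cell viability assay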
Description: SANGER: Inhibition of human GCT cell growth in a cell viability assay.

H4 = assay type: functional, cell-based; conditions: Homo sapiens
Description: SANGER: Inhibition of human H4 cell growth in a cell viability assay.

HAL-01 = assay type: functional, cell-based; conditions: Homo sapiens;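 further: growth inhibition of human HAL-01 cells, read out with a cell viability assay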
Description: SANGER: Inhibition of human HAL-01 cell growth in a cell viability assay.

HCC1395 = assay type: functional, cell-based, Homo sapiens; conditions: Homo sapiens, HCC1395;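 further: growth inhibition of HCC1395 cells, read out by a cell viability assay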
Description: SANGER: Inhibition of human HCC1395 cell growth in a cell viability assay.

HCC1806 = assay type: functional, cell-based, Homo sapiens; conditions: Homo sapiens, HCC1806;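 further: growth inhibition of the cancer cell line, determined with a cell viability assay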
Description: SANGER: Inhibition of human HCC1806 cell growth in a cell viability assay.

HH = assay type: functional, cell-based; conditions: Homo sapiens
Description: SANGER: Inhibition of human HH cell growth in a cell viability assay.

HuCCT-1 = assay type: functional, cell-based, Homo sapiens, HuCCT1; conditions: Homo sapiens, HuCCT-1;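 further: growth inhibition of HuCCT-1 cells, read out by a cell viability assay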
Description: SANGER: Inhibition of human HuCCT1 cell growth in a cell viability assay.

HuP-T4 = assay type: functional, cell-based, Homo sapiens; conditions: Homo sapiens, HuP-T4;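 further: cell viability assay measuring how much HuP-T4 cell growth is inhibited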
Description: SANGER: Inhibition of human HuP-T4 cell growth in a cell viability assay.

IA-LM = assay type: functional, cell-based, Homo sapiens; conditions: Homo sapiens, IA-LM;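 further: cell viability assay measuring growth inhibition of human IA-LM cells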
Description: SANGER: Inhibition of human IA-LM cell growth in a cell viability assay.

IST-SL1 = assay type: functional, cell-based, Homo sapiens; conditions: Homo sapiens, IST-SL1;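 further: growth inhibition of human IST-SL1 cells, read out with a cell viability assay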
Description: SANGER: Inhibition of human IST-SL1 cell growth in a cell viability assay.

JAR = assay type: functional, cell-based, Homo sapiens; conditions: Homo sapiens, JAR;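 further: growth inhibition of human JAR cells determined with a cell viability assay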
Description: SANGER: Inhibition of human JAR cell growth in a cell viability assay.

KARPAS-299 = assay type: functional, cell-based; conditions: Homo sapiens
Description: SANGER: Inhibition of human KARPAS-299 cell growth in a cell viability assay.

KM-H2 = assay type: functional, cell-based; conditions: Homo sapiens;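 further: growth inhibition of KM-H2 cells, read out by a cell viability assay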
Description: SANGER: Inhibition of human KM-H2 cell growth in a cell viability assay.

KM12 = assay type: functional, cell-based, Homo sapiens; conditions: Homo sapiens, KM12;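 further: KM12 cell growth inhibition, read out with a cell viability assay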
Description: SANGER: Inhibition of human KM12 cell growth in a cell viability assay.

KOSC-2 = assay type: functional, cell-based, Homo sapiens; conditions: Homo sapiens, KOSC-2;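 further: growth inhibition of KOSC-2 cells, read out by a cell viability assay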
Description: SANGER: Inhibition of human KOSC-2 cell growth in a cell viability assay.

KS-1 = assay type: functional, cell-based, Homo sapiens; conditions: Homo sapiens, KS-1;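 further: growth inhibition of KS-1 cells, read out with a cell viability assay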
Description: SANGER: Inhibition of human KS-1 cell growth in a cell viability assay.

KU812 cell line = assay type: functional, cell-based; conditions: Homo sapiens;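 further: growth inhibition of KU812 cells, read out with a cell viability assay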
Description: SANGER: Inhibition of human KU812 cell growth in a cell viability assay.

LAMA-84 = assay type: functional, cell-based; conditions: Homo sapiens;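 further: growth inhibition of LAMA-84 cells, read out with a cell viability assay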
Description: SANGER: Inhibition of human LAMA-84 cell growth in a cell viability assay.

LS-411N = assay type: functional, cell-based, Homo sapiens; conditions: Homo sapiens, LS-411N
MC116 = assay type: functional, cell-based; conditions: Homo sapiens;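 further: growth inhibition of MC116 cells, read out with a cell viability assay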
Description: SANGER: Inhibition of human MC116 cell growth in a cell viability assay.

MEL-HO = assay type: functional, cell-based, Homo sapiens; conditions: Homo sapiens, MEL-HO
Description: SANGER: Inhibition of human MEL-HO cell growth in a cell viability assay.

MFM-223 = assay type: functional, cell-based, Homo sapiens; conditions: Homo sapiens, MFM-223
Description: SANGER: Inhibition of human MFM-223 cell growth in a cell viability assay.

MG-63 = assay type: functional, cell-based, Homo sapiens; conditions: Homo sapiens, MG-63;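 further: growth inhibition of human MG-63 cells, read out with a cell viability assay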
Description: SANGER: Inhibition of human MG-63 cell growth in a cell viability assay.

NCI-H1581 = assay type: functional, cell-based, Homo sapiens; conditions: Homo sapiens, NCI-H1581;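 further: cell growth inhibition read out by a viability assay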
Description: SANGER: Inhibition of human NCI-H1581 cell growth in a cell viability assay.

NCI-H727 = assay type: functional, cell-based, Homo sapiens; conditions: Homo sapiens, NCI-H727;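 further: growth inhibition of human NCI-H727 cells, read out with a cell viability assay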
Description: SANGER: Inhibition of human NCI-H727 cell growth in a cell viability assay.

NTERA-2-cl-D1 = assay type: functional, cell-based, Homo sapiens; conditions: Homo sapiens, NTERA-2-cl-D1;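 further: inhibition of cell growth, measured with a cell viability assay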
Description: SANGER: Inhibition of human NTERA-S-cl-D1 cell growth in a cell viability assay.

OCI-AML2 = assay type: functional, cell-based; conditions: Homo sapiens;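 further: growth inhibition of OCI-AML2 cells, read out with a cell viability assay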
Description: SANGER: Inhibition of human OCI-AML2 cell growth in a cell viability assay.

OMC-1 = assay type: functional, cell-based, Homo sapiens; conditions: Homo sapiens, OMC-1;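 further: growth inhibition of the OMC-1 cell line, measured by a cell viability assay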
Description: SANGER: Inhibition of human OMC-1 cell growth in a cell viability assay.

OVCAR-4 = assay type: functional, cell-based, Homo sapiens; conditions: Homo sapiens, OVCAR-4;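 further: growth inhibition of human OVCAR-4 cells, measured with a cell viability assay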
Description: SANGER: Inhibition of human OVCAR-4 cell growth in a cell viability assay.

RPMI-7951 = assay type: functional, cell-based, Homo sapiens; conditions: Homo sapiens, RPMI-7951
Description: SANGER: Inhibition of human RPMI-7951 cell growth in a cell viability assay.

RT-112 = assay type: functional, cell-based, Homo sapiens; conditions: Homo sapiens, RT-112
Description: SANGER: Inhibition of human RT-112 cell growth in a cell viability assay.

SK-NEP-1 = assay type: functional, cell-based; conditions: Homo sapiens;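 further: growth inhibition of human SK-NEP-1 cells, read out by a cell viability assay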
Description: SANGER: Inhibition of human SK-NEP-1 cell growth in a cell viability assay.

SK-OV-3 = assay type: functional, cell-based, Homo sapiens; conditions: Homo sapiens, SK-OV-3;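 further: growth inhibition of SK-OV-3 human cells, read out with a cell viability assay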
Description: SANGER: Inhibition of human SK-OV-3 cell growth in a cell viability assay.

SW1783 = assay type: functional, cell-based; conditions: Homo sapiens;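 further: cell growth inhibition measured with a viability assay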
Description: SANGER: Inhibition of human SW1783 cell growth in a cell viability assay.

697 = assay type: functional, cell-based; conditions: Homo sapiens
Description: SANGER: Inhibition of human 697 cell growth in a cell viability assay.

A204 = assay type: functional, cell-based, Homo sapiens; conditions: Homo sapiens, A204;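 further: growth inhibition of human A204 cells, read out with a cell viability assay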
Description: SANGER: Inhibition of human A204 cell growth in a cell viability assay.

A-375 = assay type: functional, cell-based, Homo sapiens; conditions: Homo sapiens, A-375;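 further: growth inhibition of A375 cells, read out with a cell viability assay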
Description: SANGER: Inhibition of human A375 cell growth in a cell viability assay.

A-431 = assay type: functional, cell-based, Homo sapiens; conditions: Homo sapiens, A-431;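 further: growth inhibition of A-431 cells, determined with a cell viability read-out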
Description: SANGER: Inhibition of human A431 cell growth in a cell viability assay.

BE-13 = assay type: functional, cell-based; conditions: Homo sapiens;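 further: growth inhibition of human BE-13 cells, measured with a cell viability assay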
Description: SANGER: Inhibition of human BE-13 cell growth in a cell viability assay.

BEN = assay type: functional, cell-based, Homo sapiens; conditions: Homo sapiens, BEN;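 further: growth inhibition of the BEN cell line, read out with a cell viability assay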
Description: SANGER: Inhibition of human BEN cell growth in a cell viability assay.

BFTC-905 = assay type: functional, cell-based, Homo sapiens; conditions: Homo sapiens, BFTC-905
Description: SANGER: Inhibition of human BFTC-905 cell growth in a cell viability assay.

CAL-33 = assay type: functional, cell-based, Homo sapiens; conditions: Homo sapiens, CAL-33;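 further: growth inhibition of CAL-33 cells, read out with a cell viability assay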
Description: SANGER: Inhibition of human CAL-33 cell growth in a cell viability assay.

CAL-85-1 = assay type: functional, cell-based; conditions: Homo sapiens;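 further: growth inhibition of human CAL-85-1 cells, read out with a cell viability assay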
Description: SANGER: Inhibition of human CAL-85-1 cell growth in a cell viability assay.

TE-10 = assay type: functional, cell-based, Homo sapiens; conditions: Homo sapiens, TE-10;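 further: growth inhibition of TE-10 cells, measured by a cell viability assay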
Description: SANGER: Inhibition of human TE-10 cell growth in a cell viability assay.

U-87 MG = assay type: functional, cell-based, U-87MG ATCC; conditions: Homo sapiens;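 further: growth inhibition of the cells measured with a viability assay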
Description: SANGER: Inhibition of human U-87-MG cell growth in a cell viability assay.

UO-31 = assay type: functional, cell-based; conditions: Homo sapiens;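 further: cell viability assay measuring inhibition of cell growth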
Description: SANGER: Inhibition of human U031 cell growth in a cell viability assay.

UACC-257 = assay type: functional, cell-based, Homo sapiens; conditions: Homo sapiens, UACC-257
Description: SANGER: Inhibition of human UACC-257 cell growth in a cell viability assay.

CAMA-1 = assay type: functional, cell-based, Homo sapiens; conditions: Homo sapiens, CAMA-1;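 further: growth inhibition of CAMA-1 cells, read out with a cell viability assay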
Description: SANGER: Inhibition of human CAMA-1 cell growth in a cell viability assay.

Q: What does the source list for `C[C@]1(O)C[C@@H](c2nc(-c3ccc4ccc(-c5ccccc5)nc4c3)c3c(N)nccn32)C1` [LINSITINIB]?
A: IC50 (CTV-1): > 2.56 µM; IC50 (DK-MG): > 2.56 µM; IC50 (DOK): 0.556 µM; IC50 (G-402): > 2.56 µM; IC50 (GCT): > 2.56 µM; IC50 (H4): > 2.56 µM; IC50 (HAL-01): > 2.56 µM; IC50 (HCC1395): > 2.56 µM; IC50 (HCC1806): > 2.56 µM; IC50 (HH): > 2.56 µM; IC50 (HuCCT-1): > 2.56 µM; IC50 (HuP-T4): > 2.56 µM; IC50 (IA-LM): > 2.56 µM; IC50 (IST-SL1): > 2.56 µM; IC50 (JAR): > 2.56 µM; IC50 (KARPAS-299): > 2.56 µM; IC50 (KM-H2): > 2.56 µM; IC50 (KM12): > 2.56 µM; IC50 (KOSC-2): > 2.56 µM; IC50 (KS-1): 0.0384 µM; IC50 (KU812 cell line): > 2.56 µM; IC50 (LAMA-84): > 2.56 µM; IC50 (LS-411N): > 2.56 µM; IC50 (MC116): > 2.56 µM; IC50 (MEL-HO): > 2.56 µM; IC50 (MFM-223): > 2.56 µM; IC50 (MG-63): > 2.56 µM; IC50 (NCI-H1581): > 2.56 µM; IC50 (NCI-H727): 0.198 µM; IC50 (NTERA-2-cl-D1): > 2.56 µM; IC50 (OCI-AML2): > 2.56 µM; IC50 (OMC-1): > 2.56 µM; IC50 (OVCAR-4): > 2.56 µM; IC50 (RPMI-7951): > 2.56 µM; IC50 (RT-112): > 2.56 µM; IC50 (SK-NEP-1): 0.602 µM; IC50 (SK-OV-3): > 2.56 µM; IC50 (SW1783): > 2.56 µM; IC50 697: > 2.56 µM; IC50 (A204): > 2.56 µM; IC50 (A-375): 0.476 µM; IC50 (A-431): > 2.56 µM; IC50 (BE-13): > 2.56 µM; IC50 (BEN): > 2.56 µM; IC50 (BFTC-905): 0.468 µM; IC50 (CAL-33): > 2.56 µM; IC50 (CAL-85-1): 1.23 µM; IC50 (TE-10): > 2.56 µM; IC50 (U-87 MG): > 2.56 µM; IC50 (UO-31): > 2.56 µM; IC50 (UACC-257): > 2.56 µM; IC50 (CAMA-1): > 2.56 µM

Q: Which IC50 (CTV-1) does the source give for `C=CCc1cccc(/C=N/NC(=O)CN2CCN(Cc3ccccc3)CC2)c1O` [PAC-1] here?
A: 1.96 µM

Q: What about the IC50 (DK-MG) of the same compound?
A: > 2.56 µM

Q: What about the IC50 (DOK) of the same compound?
A: > 2.56 µM

Q: And the IC50 (G-402)?
A: > 2.56 µM

Q: What about the IC50 (GCT) of the same compound?
A: > 2.56 µM

Q: What about the IC50 (H4) of the same compound?
A: > 2.56 µM

Q: And the IC50 (HAL-01)?
A: 0.788 µM

Q: And the IC50 (HCC1395)?
A: > 2.56 µM

Q: What about the IC50 (HCC1806) of the same compound?
A: > 2.56 µM

Q: What about the IC50 (HH) of the same compound?
A: > 2.56 µM

Q: And the IC50 (HuCCT-1)?
A: 1.46 µM

Q: And the IC50 (HuP-T4)?
A: > 2.56 µM

Q: And the IC50 (IA-LM)?
A: > 2.56 µM

Q: And the IC50 (IST-SL1)?
A: > 2.56 µM

Q: What about the IC50 (JAR) of the same compound?
A: > 2.56 µM

Q: What about the IC50 (KARPAS-299) of the same compound?
A: > 2.56 µM

Q: What about the IC50 (KM-H2) of the same compound?
A: > 2.56 µM

Q: What about the IC50 (KM12) of the same compound?
A: > 2.56 µM

Q: And the IC50 (KOSC-2)?
A: > 2.56 µM

Q: And the IC50 (KS-1)?
A: > 2.56 µM

Q: What about the IC50 (KU812 cell line) of the same compound?
A: > 2.56 µM

Q: What about the IC50 (LAMA-84) of the same compound?
A: > 2.56 µM

Q: And the IC50 (LS-411N)?
A: 2.08 µM

Q: And the IC50 (MC116)?
A: 1.21 µM

Q: And the IC50 (MEL-HO)?
A: 1.77 µM

Q: And the IC50 (MFM-223)?
A: > 2.56 µM

Q: And the IC50 (MG-63)?
A: > 2.56 µM

Q: And the IC50 (NCI-H1581)?
A: > 2.56 µM

Q: What about the IC50 (NCI-H727) of the same compound?
A: 2 µM

Q: What about the IC50 (NTERA-2-cl-D1) of the same compound?
A: > 2.56 µM

Q: What about the IC50 (OCI-AML2) of the same compound?
A: > 2.56 µM

Q: And the IC50 (OMC-1)?
A: > 2.56 µM

Q: What about the IC50 (OVCAR-4) of the same compound?
A: > 2.56 µM

Q: And the IC50 (RPMI-7951)?
A: > 2.56 µM

Q: And the IC50 (RT-112)?
A: > 2.56 µM

Q: And the IC50 (SK-NEP-1)?
A: > 2.56 µM

Q: And the IC50 (SK-OV-3)?
A: 1.66 µM

Q: And the IC50 (SW1783)?
A: > 2.56 µM

Q: What about the IC50 697 of the same compound?
A: 0.91 µM

Q: And the IC50 (A204)?
A: > 2.56 µM

Q: And the IC50 (A-375)?
A: 0.869 µM

Q: What about the IC50 (A-431) of the same compound?
A: > 2.56 µM

Q: And the IC50 (BE-13)?
A: > 2.56 µM

Q: And the IC50 (BEN)?
A: > 2.56 µM

Q: And the IC50 (BFTC-905)?
A: > 2.56 µM

Q: And the IC50 (CAL-33)?
A: > 2.56 µM

Q: What about the IC50 (CAL-85-1) of the same compound?
A: > 2.56 µM

Q: And the IC50 (TE-10)?
A: > 2.56 µM

Q: What about the IC50 (U-87 MG) of the same compound?
A: > 2.56 µM

Q: What about the IC50 (UO-31) of the same compound?
A: 1.51 µM

Q: And the IC50 (UACC-257)?
A: > 2.56 µM

Q: And the IC50 (CAMA-1)?
A: > 2.56 µM
